According to patent US20230165888A1, “OLIGONUCLEOTIDE HAVING ANTI-INFLAMMATORY ACTIVITY” (priority 2019, published 2023):

Assays:
Format in all cases: cell-based
[1] = test system: mouse primary chondrocytes; experiment: Osteoarthritis marker gene expression in IL-1β-treated mouse primary chondrocytes (real-time PCR); settings: oligonucleotide 10 ng/mL 2 hours, then IL-1β 6 hours, FIG. 8
[2] = test system: mouse primary astrocytes; experiment: Cytokine gene expression in mouse primary astrocytes (PCR); settings: LPS 100 ng/ml + interferon-gamma 50 unit/ml, FIG. 7
Protocol: (§1) The prepared astrocytes were treated with LPS (100 ng/ml)+interferon-gamma (50 unit/ml) for inflammatory stimulation, and allowed to stand for 2 hours, and then treated with the oligonucleotide (15 bp Oligo25, SEQ ID NO: 11) to confirm the amount of NO produced and the expression amount of cytokines.
The expression amount of cytokines was confirmed by measuring the expression level of the cytokine genes using the conventional PCR analysis described in Example 5 above, and the concentration of cytokine proteins in the cell culture using Western blotting.

[3] = test system: BV2 cells, a mouse microglia cell line; experiment: NO production in BV2 microglia stimulated with LPS + interferon-gamma; settings: LPS 100 ng/ml + interferon-gamma 50 unit/ml, oligonucleotide after 2 hours, FIG. 4
[4] = test system: BV2 cells, a mouse microglia cell line; experiment: Pro-inflammatory cytokine gene expression in BV2 microglia (PCR); settings: LPS 100 ng/ml + interferon-gamma 50 unit/ml, FIG. 5
Protocol: The expression amount of cytokines was confirmed by measuring the expression level of cytokine genes in the BV2 cells using conventional PCR analysis, and the specific method is as follows. Total ribonucleic acid (RNA) was extracted from the treated cells using a TRIZOL reagent (Invitrogen, Carlsbad, Calif., United States). Reverse transcription (RT) was carried out using Superscript II reverse transcriptase (Invitrogen) and oligo (dT) primers. PCR amplification was carried out in a C1000 Touch Thermal Cycler (Bio-Rad, Richmond, Calif., United States) at an annealing temperature of 55-60° C. in 25-32 cycles using specific primer sets. The PCR product having ethidium bromide was electrophoresed on a 1% agarose gel and irradiated with ultraviolet rays to observe bands.

[5] = test system: mouse primary astrocytes; experiment: NO production in mouse primary astrocytes stimulated with LPS + interferon-gamma; settings: LPS 100 ng/ml + interferon-gamma 50 unit/ml, oligonucleotide after 2 hours, FIG. 6
Protocol: as §1

## AGG GAG GGA GGG AGG (DNA AGGGAGGGAGGGAGG; listed as DNA, chemistry not given here) [15 bp Oligo25, 15 bp oligonucleotide with ratio of adenosine and guanosine 1:3]
[1]
  expression level of ADAMTS5 gene: increased
  expression level of MMP3 gene: reduced
  expression level of MMP9 gene: reduced
  expression level of MMP12 gene: reduced
  expression level of MMP13 gene: reduced
[2]
  expression level of IL-1β gene: significantly reduced
  expression level of IL-6 gene: significantly reduced
  expression level of TNF-α gene: significantly reduced
  expression level of anti-inflammatory cytokine IL-10 gene: significantly increased
[3]
  NO production: NO production was reduced in proportion to the treatment concentration
[4]
  expression level of IL-1β gene: significantly reduced
  expression level of IL-6 gene: significantly reduced
  expression level of TNF-α gene: significantly reduced
[5]
  NO production: NO production was reduced in proportion to the treatment concentration
